Assay results from patent US6187296A, “Lysine decarboxylase inhibitors for the prevention and treatment of periodontal disease” (priority 2000, dated 2001).

Columns and labels:
[1] = tested on: lysine decarboxylase; details: Mycoplasma dispar; cited from earlier work
[2] = molecular target: T1, lysine decarboxylase (Selenomonas ruminantium, UniProt O50657); details: cited from earlier work
T1 construct: host or cells: Selenomonas ruminantium

[3] = tested on: HL60 cells; assay type: cell-based; details: FIG. 3; control 0.22 mM lysine; 0.72 mM lysine and/or 0.42 mM EACA
Procedure: Graphs show the percent growth inhibition after 96 h (2A) and the percent lysine remaining (2B) after 40 h incubation (obtained as described in legend to FIG. 1).

[4] = molecular target: lysine decarboxylase (Eikenella corrodens, UniProt Q9Z4R7); experiment: Cadaverine production by E. corrodens extract as a function of initial lysine concentration; assay type: biochemical; details: 0.42 mM EACA
Procedure: FIGS. 4A and 4B are graphs showing cadaverine production as a function of initial lysine concentration in the presence and absence of […] ε-amino-n-caproic acid (EACA). […] Initial rate of cadaverine produced (from 0.3 μg E. corrodens extract protein/ml) graphed against the initial lysine concentration. A. Cadaverine produced after 20 min: Enzyme only: .circle-solid.-.circle-solid.; with 0.42 ImM EACA .smallcircle. . . . .smallcircle.. B. Enlarged inset, cadaverine produced after 16 h (limited substrate): Enzyme only .circle-solid.-.circle-solid.; with 0.42 mM EACA .smallcircle. . . . .smallcircle..
The results of FIG. 1 were obtained when 0.1 ml of E. corrodens extract (10 μg protein/ml), or plaque extract (100 μg protein/ml) was added to 0.5×10^5 HL60 cells or 2×10^5 HeLa cells in 0.5 ml growth medium in 48-well plates (Costar, Cambridge, Mass.). The cells were incubated for 96 h at 37° C. in 5% CO2 in air, examined visually and counted on a Coulter Counter (Coulter Electronics Hialeah, Fla.). […] The samples were incubated at 43° C. for 5.0 min, vortexed with 2.0 ml toluene for 20 sec, centrifuged at 2,000 rpm for 5 min and the absorbance of the toluene layer read at 340 nm. From a standard curve, the cadaverine produced was measured and subtracted from the amount of free lysine initially in the medium plus extract after 16 h or 40 h. […]

[5] = molecular target: T2, lysine decarboxylase (Escherichia coli, UniProt P0A9H3); details: cited from earlier work
T2 construct: host or cells: Escherichia coli

[6] = tested on: lysine decarboxylase; experiment: Lysine decarboxylase activity in Mycoplasma dispar; assay type: biochemical; details: half of the DL-form inhibiting values
[7] = molecular target: T1, lysine decarboxylase; experiment: Lysine decarboxylase activity in Selenomonas ruminantium; assay type: biochemical; details: half of the DL-form inhibiting values, read-out: Equivalent L inhibitory values

T1 sequence (O50657 whole entry): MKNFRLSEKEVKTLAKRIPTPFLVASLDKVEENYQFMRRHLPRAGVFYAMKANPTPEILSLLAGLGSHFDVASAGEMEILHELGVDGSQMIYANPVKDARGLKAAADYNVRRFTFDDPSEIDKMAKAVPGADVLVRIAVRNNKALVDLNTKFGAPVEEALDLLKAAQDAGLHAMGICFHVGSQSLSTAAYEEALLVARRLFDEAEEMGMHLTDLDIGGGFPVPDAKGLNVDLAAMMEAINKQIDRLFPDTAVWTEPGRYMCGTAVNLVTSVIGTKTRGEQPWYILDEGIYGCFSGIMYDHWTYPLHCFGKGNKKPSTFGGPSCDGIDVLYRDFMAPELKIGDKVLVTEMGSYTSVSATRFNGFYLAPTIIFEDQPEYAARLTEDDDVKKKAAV
Chain of lysine decarboxylase (Eikenella corrodens, UniProt Q9Z4R7) (Q9Z4R7 entry or part of it): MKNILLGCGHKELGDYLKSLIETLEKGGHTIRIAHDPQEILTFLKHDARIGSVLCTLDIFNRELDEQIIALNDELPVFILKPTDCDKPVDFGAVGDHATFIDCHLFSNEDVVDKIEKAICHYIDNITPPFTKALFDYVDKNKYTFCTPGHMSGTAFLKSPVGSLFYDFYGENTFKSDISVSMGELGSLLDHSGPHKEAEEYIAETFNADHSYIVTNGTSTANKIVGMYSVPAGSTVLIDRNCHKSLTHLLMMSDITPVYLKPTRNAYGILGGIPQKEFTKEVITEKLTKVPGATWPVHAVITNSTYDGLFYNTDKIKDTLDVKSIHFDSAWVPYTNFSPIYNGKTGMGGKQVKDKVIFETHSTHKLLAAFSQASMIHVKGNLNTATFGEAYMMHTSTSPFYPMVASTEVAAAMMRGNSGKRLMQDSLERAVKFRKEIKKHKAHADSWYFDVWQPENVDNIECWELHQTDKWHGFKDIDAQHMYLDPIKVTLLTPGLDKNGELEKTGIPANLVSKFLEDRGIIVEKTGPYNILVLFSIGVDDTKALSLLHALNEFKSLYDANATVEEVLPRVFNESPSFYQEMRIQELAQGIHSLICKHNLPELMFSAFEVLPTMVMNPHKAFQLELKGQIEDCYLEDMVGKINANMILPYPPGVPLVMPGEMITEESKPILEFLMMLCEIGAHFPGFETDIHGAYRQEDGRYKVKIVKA
T2 sequence (P0A9H3 whole entry): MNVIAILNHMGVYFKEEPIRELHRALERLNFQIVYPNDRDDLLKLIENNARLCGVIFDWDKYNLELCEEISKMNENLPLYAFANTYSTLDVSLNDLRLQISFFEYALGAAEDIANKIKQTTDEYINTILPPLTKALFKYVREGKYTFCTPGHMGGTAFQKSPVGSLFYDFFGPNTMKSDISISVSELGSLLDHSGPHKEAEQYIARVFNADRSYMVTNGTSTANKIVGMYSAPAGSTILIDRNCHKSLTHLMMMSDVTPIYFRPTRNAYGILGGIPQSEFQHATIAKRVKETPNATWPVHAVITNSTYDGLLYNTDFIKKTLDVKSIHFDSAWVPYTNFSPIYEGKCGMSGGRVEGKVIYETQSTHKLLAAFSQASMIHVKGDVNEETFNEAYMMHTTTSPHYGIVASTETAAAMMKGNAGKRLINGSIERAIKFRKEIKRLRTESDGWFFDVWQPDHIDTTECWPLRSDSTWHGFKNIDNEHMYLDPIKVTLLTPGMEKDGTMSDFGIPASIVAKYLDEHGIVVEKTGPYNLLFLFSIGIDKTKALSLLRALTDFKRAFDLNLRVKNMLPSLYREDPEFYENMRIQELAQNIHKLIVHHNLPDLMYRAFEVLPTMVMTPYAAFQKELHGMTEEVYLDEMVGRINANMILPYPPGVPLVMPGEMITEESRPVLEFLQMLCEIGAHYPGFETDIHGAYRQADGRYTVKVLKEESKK

| Structure (SMILES) | Effect on lysine decarboxylase activity [1] | Effect on lysine decarboxylase activity [2] | Effect on growth inhibiting activity of E. corrodens extract [3] | further results |
| --- | --- | --- | --- | --- |
| NCCCC(N)(C(=O)O)C(F)F (racemic) [DFMO] | no effect | no effect |  |  |
| N=C(N)NCCCC(N)(C(=O)O)C(F)F (racemic) [DFMR] | no effect | no effect |  |  |
| NCCCCCC(=O)O [EACA, ε-amino-n-caproic acid] |  |  | increased the growth inhibition | Effect on the E. corrodens enzyme at high lysine concentrations ([4]; high lysine concentrations): inhibits the enzyme; Effect on the E. corrodens enzyme at low lysine concentrations ([4]; lysine 0.22-0.72 mM as in growth media): activates the enzyme; Effect on lysine decarboxylase from E. coli [5]: inhibits |
| NCCCC[C@](N)(C(=O)O)C(F)F [L-DFML] |  |  |  | Equivalent L inhibitory values [6]: 0.05 to 0.50 mM; IC100 [7]: 50 to 500 µM |
| NCCCC[C@H](N)C(=O)O [lysine] |  |  | decreased the growth inhibiting activity |  |
